Test system: C3H10T½ cells
Type: cell-based, murine

NC(=O)NO [HU, hydroxyurea]
Type X collagen synthesis: induces type X collagen synthesis
